Measured values taken from patent US20220306609A1, “BICYCLIC COMPOUNDS AS ANDROGEN RECEPTOR MODULATORS” (NIDO BIOSCIENCES, INC., priority 2021, published 2022).

Each molecule was assayed against T1, androgen receptor (AR) (Homo sapiens, UniProt P10275, T878A) (assay: LNCaP ARR2PB-FireflyLuc / CMV-RenillaLuc reporter assay, antagonist mode). Conditions: LNCaP cells expressing ARR2PB-FireflyLuc and CMV-RenillaLuc; +/- 0.5 nM DHT; 48 h at 37° C.
T1 construct: LNCaP cells expressing ARR2PB-FireflyLuc and CMV-RenillaLuc; endogenous in cells; host or cells: LNCaP
T1 sequence (P10275 1-920 T878A): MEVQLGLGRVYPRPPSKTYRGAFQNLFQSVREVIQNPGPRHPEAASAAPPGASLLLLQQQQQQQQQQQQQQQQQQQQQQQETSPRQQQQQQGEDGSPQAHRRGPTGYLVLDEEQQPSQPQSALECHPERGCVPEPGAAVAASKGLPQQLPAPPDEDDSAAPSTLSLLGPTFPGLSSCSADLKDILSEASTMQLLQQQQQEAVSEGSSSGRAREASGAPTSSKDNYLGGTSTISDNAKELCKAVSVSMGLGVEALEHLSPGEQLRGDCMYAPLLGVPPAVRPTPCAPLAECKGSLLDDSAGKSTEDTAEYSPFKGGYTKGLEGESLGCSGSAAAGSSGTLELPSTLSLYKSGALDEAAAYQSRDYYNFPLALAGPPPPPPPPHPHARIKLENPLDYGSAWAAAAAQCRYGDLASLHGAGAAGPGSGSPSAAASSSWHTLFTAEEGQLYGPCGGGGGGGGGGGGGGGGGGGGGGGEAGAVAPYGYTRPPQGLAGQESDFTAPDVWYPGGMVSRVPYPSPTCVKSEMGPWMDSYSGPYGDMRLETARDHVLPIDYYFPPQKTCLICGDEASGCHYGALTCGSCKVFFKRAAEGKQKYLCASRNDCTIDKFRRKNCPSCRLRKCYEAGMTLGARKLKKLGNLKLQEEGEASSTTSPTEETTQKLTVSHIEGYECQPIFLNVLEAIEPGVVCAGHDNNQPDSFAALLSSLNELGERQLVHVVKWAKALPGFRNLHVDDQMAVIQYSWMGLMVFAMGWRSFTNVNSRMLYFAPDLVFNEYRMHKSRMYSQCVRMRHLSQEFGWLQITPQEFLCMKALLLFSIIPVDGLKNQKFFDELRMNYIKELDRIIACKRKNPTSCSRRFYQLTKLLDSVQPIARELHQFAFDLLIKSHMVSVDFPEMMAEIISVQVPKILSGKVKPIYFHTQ
Assay type: cell-based
Method: LNCaP cells expressing ARR2PB-FireflyLuc and CMV-RenillaLuc were treated with indicated concentrations of test compounds, enzalutamide ([…]), or DHT (positive control)+/−0.5 nM DHT for 48 h at 37° C. Fluorescent signals were read with the ImageXpress Micro Confocal System. Remaining activity (antagonist mode) was calculated as % Remaining Activity=100×[(ReadSample−[…])/(HCave−LCave)] where HC is cells treated with 0.5 nM DHT only and LC is cells treated with 10 uM enzalutamide+0.5 nM DHT. Activation (agonist mode) was calculated as % Activation=100×[(ReadSample−LCave)/(HCave−LCave)] where HC is cells treated with 1 uM DHT and LC is cells treated with DMSO. Dose response curves and IC50 values were calculated using non-linear regression analysis in XLfit.
The designation “A” indicates an IC50 value of >10 μM, “B” indicates an IC50 value between 1 μM and 10 μM; “C” indicates an IC50 value between 100 nM and 1 μM; and “D” indicates an IC50 value of less than 100 nM.
In the case of `N#Cc1cccc2c(-c3ccn(C4CC4)n3)c[nH]c12` [Compound 009, 3-(1-cyclopropylpyrazol-3-yl)-1H-indole-7-carbonitrile], the IC50 is reported as 100 to 1000 nM.
For `CCn1ccc(-c2c[nH]c3c(C#N)cccc23)n1` [Compound 008, 3-(1-ethylpyrazol-3-yl)-1H-indole-7-carbonitrile], the IC50 was < 100 nM.
`CCn1nc(-c2c[nH]c3c(C#N)cccc23)ccc1=O` [Compound 002, 3-(1-ethyl-6-oxopyridazin-3-yl)-1H-indole-7-carbonitrile] was tested, and the IC50 was < 100 nM.
For `CCn1nc(-c2c[nH]c3c(Cl)nccc23)ccc1=O` [Compound 003, 6-[7-chloro-1H-pyrrolo[2,3-c]pyridin-3-yl]-2-ethylpyridazin-3-one], the IC50 was > 10000 nM.
Work on `CCN1N=C(c2c[nH]c3c(C#N)cccc23)CCC1=O` [Compound 001, 3-(1-ethyl-6-oxo-4,5-dihydropyridazin-3-yl)-1H-indole-7-carbonitrile] yielded an IC50 of 100 to 1000 nM.
`CCn1nc(C)cc1-c1c[nH]c2c(C#N)cccc12` [Compound 012, 3-(2-ethyl-5-methylpyrazol-3-yl)-1H-indole-7-carbonitrile] was tested, and the IC50 was < 100 nM.
In the case of `CCn1nc(-c2c[nH]c3c(C#N)cccc23)cc(OC)c1=O` [Compound 006, 3-(1-ethyl-5-methoxy-6-oxopyridazin-3-yl)-1H-indole-7-carbonitrile], the IC50 is reported as 1000 to 10000 nM.
For `CCn1nc(-c2c[nH]c3c(C#N)cccc23)c(C)cc1=O` [Compound 005, 3-(1-ethyl-4-methyl-6-oxopyridazin-3-yl)-1H-indole-7-carbonitrile], the IC50 was 1000 to 10000 nM.
For `N#Cc1cccc2c(-c3ccc(=O)n(CC(F)F)n3)c[nH]c12` [Compound 004, 3-[1-(2,2-difluoroethyl)-6-oxopyridazin-3-yl]-1H-indole-7-carbonitrile], the IC50 was 100 to 1000 nM.
In the case of `CCn1cc(-c2c[nH]c3c(C#N)cccc23)cn1` [Compound 007, 3-(1-ethylpyrazol-4-yl)-1H-indole-7-carbonitrile], the IC50 is reported as 1000 to 10000 nM.
For `CC(C)(O)Cn1ccc(-c2c[nH]c3c(C#N)cccc23)n1` [Compound 010, 3-[1-(2-hydroxy-2-methylpropyl)pyrazol-3-yl]-1H-indole-7-carbonitrile], the IC50 was > 10000 nM.
Molecule `CCn1nc(-c2c[nH]c3c(C#N)cccc23)cc1C` [Compound 011, 3-(1-ethyl-5-methylpyrazol-3-yl)-1H-indole-7-carbonitrile] has an IC50 of 100 to 1000 nM.
